The target of one assay is DHS3^G1. The experiment in a line: DHS enzyme assay, recombinant DHS3^G1. It is filed as biochemical, Arabidopsis thaliana. As to the method: (§1) To generate DHS proteins with individual sota mutations via site-directed mutagenesis, these pET28a plasmid templates were diluted by 500-fold, mixed with 0.04 U/μL Phusion DNA polymerase (Thermo Scientific), 0.2 mM deoxynucleoside triphosphates (dNTPs), 1× Phusion reaction buffer (Thermo Scientific), and 0.5 μM forward and reverse mutagenesis primers (Table 10). The PCR reaction was run using the following protocol: 98° C. for 30 s followed by 20 cycles of 10 s at 98° C., 20 s at 70° C., 4.5 min at 72° C. with a final extension at 72° C. for 10 min. The PCR products were purified using a QIAquick Gel Extraction Kit (QIAGEN), treated with FastDigest DpnI (Thermo Scientific) to digest methylated plasmid template DNA for 20 min at 37° C., and transformed into E. coli cells. The mutagenized pET28a plasmids were sequenced to confirm that no errors were introduced during the mutagenesis process.
The DHS enzyme assays were conducted using the colorimetric method that we recently described (9). Briefly, the enzyme solution (7.7 μl) containing 50 mM Hepes (pH 7.4) was preincubated with an effector molecule(s) at room temperature for 15 min. For assays using recombinant protein and enzyme fractions isolated from plant leaves, 0.01 to 0.1 μg and approximately 50 μg of proteins were used, respectively. After adding 0.5 μl of 0.1 M dithiothreitol, the samples were further incubated at room temperature for 15 min. During these incubations, the substrate solution containing 50 mM Hepes (pH 7.4), 2 mM MnCl2, 4 mM E4P, and 4 mM PEP at final concentration was preheated at 37° C. The enzyme reaction was started by adding 6.8 μl of the substrate solution, then incubated at 37° C. for 30 min, and terminated by adding 30 μl of 0.6 M trichloroacetic acid. After a brief centrifugation, 5 μl of 200 mM NaIO4 (sodium meta-periodate) in 9 N H3PO4 was added to oxidize the enzymatic product and to incubate at 25° C. for 20 min. To stop the oxidation reaction, 20 μl of 0.75 M NaAsO2 (sodium arsenite), which was dissolved in 0.5 M Na2SO4 and 0.05 M H2SO4, was added and immediately mixed. […]

The subject of a further assay is all DHS^WT isoforms. The experiment in a line: DHS enzyme assay, summary over all DHS^WT isoforms. The conditions noted are these: for inhibition of all DHS^WT isoforms: FIG. 2D. Format: biochemical, Arabidopsis thaliana. As to the method:
as §1, with “To generate recombinant DHS proteins the pET28a vectors carrying the A. thaliana DHS1 (AtDHS1), AtDHS2, or AtDHS3 WT sequence without the predicted plastid transit peptide (amino acid residues; 49-525, 34-507, and 52-527, respectively) were expressed in E. coli Rosetta-2 cells and purified using Ni-affinity chromatography, exactly as was conducted previously (9). To” for “To”
The DHS enzyme assays were conducted using the colorimetric method that we recently described (9). Briefly, the enzyme solution (7.7 μl) containing 50 mM Hepes (pH 7.4) was preincubated with an effector molecule(s) at room temperature for 15 min. For assays using recombinant protein and enzyme fractions isolated from plant leaves, 0.01 to 0.1 μg and approximately 50 μg of proteins were used, respectively. After adding 0.5 μl of 0.1 M dithiothreitol, the samples were further incubated at room temperature for 15 min. […] The absorbance of the pink supernatant was read at 549 nm with the microplate reader (Infinite 200 PRO, TECAN) to calculate DAHP production with the molar extinction coefficient at 549 nm (ε=549 nm) of 4.5×10^4 M^−1 cm^−1. […]

For another assay, the target named is T1, DHS1^WT (Arabidopsis thaliana, UniProt P29976).
T1 construct: without the predicted plastid transit peptide (amino acid residues; 49-525, 34-507, and 52-527, respectively); made in house; host or cells: E. coli Rosetta-2
T1 sequence (P29976 49-525): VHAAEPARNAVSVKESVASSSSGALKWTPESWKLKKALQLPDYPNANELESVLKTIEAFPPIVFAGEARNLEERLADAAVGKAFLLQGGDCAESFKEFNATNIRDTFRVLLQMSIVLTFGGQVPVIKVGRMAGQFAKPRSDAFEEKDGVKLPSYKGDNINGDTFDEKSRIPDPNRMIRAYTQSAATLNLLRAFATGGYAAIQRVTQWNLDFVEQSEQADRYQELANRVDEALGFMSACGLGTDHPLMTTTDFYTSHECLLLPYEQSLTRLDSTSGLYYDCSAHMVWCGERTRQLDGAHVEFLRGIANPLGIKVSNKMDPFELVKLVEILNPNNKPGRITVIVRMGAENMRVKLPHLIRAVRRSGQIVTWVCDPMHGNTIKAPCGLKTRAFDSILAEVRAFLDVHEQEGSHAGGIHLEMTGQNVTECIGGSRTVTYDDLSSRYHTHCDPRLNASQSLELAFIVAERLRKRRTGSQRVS
The experiment in a line: DHS enzyme assay (colorimetric), recombinant DHS1^WT. It is filed as biochemical. The conditions noted are these: recombinant enzyme; read-out: IC50 of effector molecule on DHS1^WT. How it is done:
as §1, with “To generate recombinant DHS proteins the pET28a vectors carrying the A. thaliana DHS1 (AtDHS1), AtDHS2, or AtDHS3 WT sequence without the predicted plastid transit peptide (amino acid residues; 49-525, 34-507, and 52-527, respectively) were expressed in E. coli Rosetta-2 cells and purified using Ni-affinity chromatography, exactly as was conducted previously (9). To” for “To”
The DHS enzyme assays were conducted using the colorimetric method that we recently described (9). Briefly, the enzyme solution (7.7 μl) containing 50 mM Hepes (pH 7.4) was preincubated with an effector molecule(s) at room temperature for 15 min. For assays using recombinant protein and enzyme fractions isolated from plant leaves, 0.01 to 0.1 μg and approximately 50 μg of proteins were used, respectively. After adding 0.5 μl of 0.1 M dithiothreitol, the samples were further incubated at room temperature for 15 min. During these incubations, the substrate solution containing 50 mM Hepes (pH 7.4), 2 mM MnCl2, 4 mM E4P, and 4 mM PEP at final concentration was preheated at 37° C. The enzyme reaction was started by adding 6.8 μl of the substrate solution, then incubated at 37° C. for 30 min, and terminated by adding 30 μl of 0.6 M trichloroacetic acid. After a brief centrifugation, 5 μl of 200 mM NaIO4 (sodium meta-periodate) in 9 N H3PO4 was added to oxidize the enzymatic product and to incubate at 25° C. for 20 min. To stop the oxidation reaction, 20 μl of 0.75 M NaAsO2 (sodium arsenite), which was dissolved in 0.5 M Na2SO4 and 0.05 M H2SO4, was added and immediately mixed. After 5 min of incubation at room temperature, one-third of the sample solution was transferred to a new tube to be mixed with 50 μl of 40 mM thiobarbituric acid and incubated at 99° C. for 15 min in a thermal cycler. The mixture was added to 600 μl of cyclohexanone in eight-strip solvent-resistant plastic tubes, mixed vigorously, and centrifuged at 4500 g for 3 min to separate water- and cyclohexanone-based layers for the extraction off the developed pink chromophore. The absorbance of the pink supernatant was read at 549 nm with the microplate reader (Infinite 200 PRO, TECAN) to calculate DAHP production with the molar extinction coefficient at 549 nm (ε=549 nm) of 4.5×10^4 M^−1 cm^−1. Reaction mixtures with boiled enzymes were run in parallel and used as negative controls to estimate the background signal.

Another assay deals with DHS3^WT. The experiment in a line: DHS enzyme assay, recombinant DHS3^WT. Format: biochemical, Arabidopsis thaliana. The conditions noted are these: read-out: IC50 of effector molecule on DHS3^WT. As to the method: as §1
(§2) The DHS enzyme assays were conducted using the colorimetric method that we recently described (9). Briefly, the enzyme solution (7.7 μl) containing 50 mM Hepes (pH 7.4) was preincubated with an effector molecule(s) at room temperature for 15 min. For assays using recombinant protein and enzyme fractions isolated from plant leaves, 0.01 to 0.1 μg and approximately 50 μg of proteins were used, respectively. […]

Assay [1] addresses T2, Arabidopsis thaliana DHS2 (AtDHS2), wild type (DHS2^WT), SEQ ID NO:2 (Arabidopsis thaliana, UniProt Q00218).
T2 construct: without the predicted plastid transit peptide (amino acid residues; 49-525, 34-507, and 52-527, respectively); made in house; host or cells: E. coli Rosetta-2
The experiment in a line: DHS enzyme assay with effector, Arabidopsis DHS2 WT. Format: biochemical. The conditions noted are these: 4 mM E4P, 4 mM PEP, pH 7.4, 37° C. As to the method: as §1, §2

Where “and” joins values, the source holds several entries; their conditions need not be identical. Equal entries are not always repeated.

T2 sequence (Q00218 34-507): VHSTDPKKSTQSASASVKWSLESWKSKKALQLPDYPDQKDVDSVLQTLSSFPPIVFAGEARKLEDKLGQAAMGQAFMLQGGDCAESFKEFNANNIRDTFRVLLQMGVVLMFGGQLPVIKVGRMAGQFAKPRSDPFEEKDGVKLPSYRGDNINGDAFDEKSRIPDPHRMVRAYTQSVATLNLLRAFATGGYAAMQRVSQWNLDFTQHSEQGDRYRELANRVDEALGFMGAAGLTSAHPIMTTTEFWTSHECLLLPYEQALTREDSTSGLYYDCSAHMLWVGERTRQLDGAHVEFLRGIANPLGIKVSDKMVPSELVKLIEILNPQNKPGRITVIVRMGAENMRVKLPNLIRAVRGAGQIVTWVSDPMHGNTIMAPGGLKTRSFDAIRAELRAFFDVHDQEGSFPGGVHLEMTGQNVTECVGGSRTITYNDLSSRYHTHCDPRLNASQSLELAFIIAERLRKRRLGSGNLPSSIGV

Take `N[C@@H](Cc1c[nH]c2ccccc12)C(=O)O` [Trp, tryptophan]: at DHS3^G1, the “IC50 of effector molecule on DHS3^G1” value is “Not inhibited”.

The IC50 is the concentration that inhibits the measured activity by half. `O=C(O)Cc1cc(O)ccc1O` [HGA, homogentisate]: the “inhibition of all DHS^WT isoforms” value in the assay on all DHS^WT isoforms was “effectively inhibited”. In addition, the IC50 was 75 to 250 µM against all DHS^WT isoforms (range over the three isoforms), 253 µM on DHS1^WT, 375 µM at DHS3^G1 (read-out: IC50 of effector molecule on DHS3^G1) and 102 µM on DHS3^WT.

On to `O=C(O)C(=O)Cc1c[nH]c2ccccc12` [IPA, indole-3-pyruvate], for which the IC50 is 58 µM and 58.3 µM in assay [1]; 241 µM on DHS1^WT.

With `O=C(O)C(=O)Cc1ccc(O)cc1` [HPP, 4-Hydroxyphenylpyruvate], the IC50 amounted to 48.4 µM in assay [1] and 516 µM at DHS3^WT. In addition, the “inhibition of all DHS^WT isoforms” value with all DHS^WT isoforms is reported as “effectively inhibited”.

For the origin of these results see patent US20250043299A1, “POINT MUTATIONS THAT BOOST AROMATIC AMINO ACID PRODUCTION AND CO2 ASSIMILATION IN PLANTS” (Wisconsin Alumni Research Foundation, priority 2021, published 2025).
